Test results: patent US7902373B2 (Pfizer Inc, priority 2006, dated 2011)

The compounds below were run against human recombinant H-PGDS (Homo sapiens, UniProt O60760) (assay: Fluorescence intensity h-PGDS TBA enzyme assay). Settings: Examples up to 622 (and 3a, 3b).
Sequence of human recombinant H-PGDS (O60760 whole entry): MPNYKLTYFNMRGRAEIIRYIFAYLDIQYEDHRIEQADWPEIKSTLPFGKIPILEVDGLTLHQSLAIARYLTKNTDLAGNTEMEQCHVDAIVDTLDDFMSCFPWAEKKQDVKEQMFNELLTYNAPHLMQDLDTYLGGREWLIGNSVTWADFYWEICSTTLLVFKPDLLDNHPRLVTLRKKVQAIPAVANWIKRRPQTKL
Assay type: biochemical
`CCC(COC)n1cnc2c(N3CCC(NC(=O)c4ccc(-c5cccc(F)c5)nc4)CC3)ncnc21` (stereo not drawn) [Example 110, 6-(3-Fluorophenyl)-N-(1-{9-[1-(methoxymethyl)propyl]-9H-purin-6-yl}piperidin-4-yl)nicotinamide] showed an IC50 of 1.61 nM.
`N#Cc1ccc(C(=O)c2cccnc2N2CCC(NC(=O)c3ccc(-c4cccc(F)c4)nc3)CC2)cc1` [Example 111, N-{1-[3-(4-Cyanobenzoyl)pyridin-2-yl]piperidin-4-yl}-6-(3-fluorophenyl)nicotinamide] gave an IC50 of 1.62 nM.
In the case of `O=C(NC1CCN(c2ncnc3c2ncn3C2CCCC2)CC1)c1ccc(-c2cccc(F)c2)nc1` [Example 112, N-[1-(9-Cyclopentyl-9H-purin-6-yl)piperidin-4-yl]-6-(3-fluorophenyl)nicotinamide], the IC50 is reported as 1.87 nM.
In the case of `COCCNC(=O)c1ccc(N2CCC(NC(=O)c3ccc(-c4cccc(F)c4)nc3)CC2)nc1` [Example 113, 6-(3-Fluorophenyl)-N-[1-(5-{[(2-methoxyethyl)amino]carbonyl}pyridin-2-yl)piperidin-4-yl]nicotinamide], the IC50 is reported as 0.263 nM.
In the case of `O=C(NC1CCN(c2ccc(C(=O)N3CCCC3)cn2)CC1)c1ccc(-c2cccc(F)c2)nc1` [Example 114, 6-(3-Fluorophenyl)-N-{1-[5-(pyrrolidin-1-ylcarbonyl)pyridin-2-yl]piperidin-4-yl}nicotinamide], the IC50 is reported as 2.3 nM.
`O=C(NC1CCN(c2ncnc3c2ncn3C2CC2)CC1)c1ccc(-c2cccc(F)c2)nc1` [Example 115, N-[1-(9-Cyclopropyl-9H-purin-6-yl)piperidin-4-yl]-6-(3-fluorophenyl)nicotinamide] showed an IC50 of 0.241 nM.
`Cc1cc(N2CCC(NC(=O)c3ccc(-c4cccc(F)c4)nc3)CC2)nc(N2CCCCC2)n1` [Example 116, 6-(3-Fluorophenyl)-N-[1-(6-methyl-2-piperidin-1-ylpyrimidin-4-yl)piperidin-4-yl]nicotinamide] was tested, and the IC50 was 2.56 nM.
In the case of `O=C(NC1CCN(c2ncnc3cc(F)ccc23)CC1)c1ccc(-c2cccc(F)c2)nc1` [Example 117, 6-(3-Fluorophenyl)-N-[1-(7-fluoroquinazolin-4-yl)piperidin-4-yl]nicotinamide], the IC50 is reported as 0.429 nM.
`CC(C)n1cnc2c(N3CCC(NC(=O)c4ccc(-c5cccc(F)c5)nc4)CC3)ncnc21` [Example 118, 6-(3-Fluorophenyl)-N-[1-(9-isopropyl-9H-purin-6-yl)piperidin-4-yl]nicotinamide] gave an IC50 of 0.89 nM.
For `O=C(NC1CCN(c2nccc(-c3ccccc3CCO)n2)CC1)c1ccc(-c2cccc(F)c2)nc1` [Example 119, 6-(3-Fluorophenyl)-N-(1-{4-[2-(2-hydroxyethyl)phenyl]pyrimidin-2-yl}piperidin-4-yl)nicotinamide], the IC50 was 3.74 nM.
Compound `CCOC(=O)c1cnc(N2CCC(NC(=O)c3ccc(-c4cccc(F)c4)nc3)CC2)cc1N1CCOCC1` [Example 120, Ethyl 6-[4-({[6-(3-fluorophenyl)pyridin-3-yl]carbonyl}amino)piperidin-1-yl]-4-morpholin-4-ylnicotinate] has an IC50 of 3.49 nM.
`Cc1nc(N2CCC(NC(=O)c3ccc(-c4cccc(F)c4)nc3)CC2)c(C#N)cc1F` [Example 121, N-[1-(3-Cyano-5-fluoro-6-methylpyridin-2-yl)piperidin-4-yl]-6-(3-fluorophenyl)nicotinamide] was tested, and the IC50 was 1.21 nM.
Work on `COc1ccc2c(N3CCC(NC(=O)c4ccc(-c5cccc(F)c5)nc4)CC3)ncnc2c1OC` [Example 122, N-[1-(7,8-Dimethoxyquinazolin-4-yl)piperidin-4-yl]-6-(3-fluorophenyl)nicotinamide] yielded an IC50 of 0.168 nM.
With `COc1cc2c(N3CCC(NC(=O)c4ccc(-c5cccc(F)c5)nc4)CC3)ncnc2c(OC)c1OC` [Example 123, 6-(3-Fluorophenyl)-N-[1-(678-trimethoxyquinazolin-4-yl)piperidin-4-yl]nicotinamide] the IC50 was 4.66 nM.
For `O=C(NC1CCN(c2ncnc3[nH]ccc23)CC1)c1ccc(-c2cccc(F)c2)nc1` [Example 124, 6-(3-fluorophenyl)-N-[1-(7H-pyrrolo[23-d]pyrimidin-4-yl)piperidin-4-yl]nicotinamide], the IC50 was 0.345 nM.
With `Cn1cnc2c(N3CCC(NC(=O)c4ccc(-c5cccc(F)c5)nc4)CC3)ncnc21` [Example 125, 6-(3-Fluorophenyl)-N-[1-(9-methyl-9H-purin-6-yl)piperidin-4-yl]nicotinamide] the IC50 was 0.176 nM.
`N#Cc1cnc(N2CCC(NC(=O)c3ccc(-c4cccc(F)c4)nc3)CC2)nc1N` [Example 126, N-[1-(4-Amino-5-cyanopyrimidin-2-yl)piperidin-4-yl]-6-(3-fluorophenyl)nicotinamide] showed an IC50 of 0.656 nM.
`O=C(NC1CCN(c2ncc(Br)cn2)CC1)c1ccc(-c2cccc(F)c2)nc1` [Example 127, N-[1-(5-Bromopyrimidin-2-yl)piperidin-4-yl]-6-(3-fluorophenyl)nicotinamide] was tested, and the IC50 was 4.01 nM.
`O=C(NC1CCN(c2nccc(Nc3cc[nH]n3)n2)CC1)c1ccc(-c2cccc(F)c2)nc1` [Example 128, 6-(3-Fluorophenyl)-N-{1-[4-(1H-pyrazol-3-ylamino)pyrimidin-2-yl]piperidin-4-yl}nicotinamide] gave an IC50 of 0.687 nM.
`O=C(NC1CCN(c2ncnc3[nH]ncc23)CC1)c1ccc(-c2cccc(F)c2)nc1` [Example 129, 6-(3-Fluorophenyl)-N-[1-(1H-pyrazolo[3,4-d]pyrimidin-4-yl)piperidin-4-yl]nicotinamide] showed an IC50 of 6.24 nM.
In the case of `COc1cc2nc(N3CCC(NC(=O)c4ccc(-c5cccc(F)c5)nc4)CC3)nc(N)c2cc1OC` [Example 130, N-[1-(4-Amino-6,7-dimethoxyquinazolin-2-yl)piperidin-4-yl]-6-(3-fluorophenyl)nicotinamide], the IC50 is reported as 4.57 nM.
With `Cc1nnc(N2CCC(NC(=O)c3ccc(-c4cccc(F)c4)nc3)CC2)c2ccccc12` [Example 131, 6-(3-Fluorophenyl)-N-[1-(4-methylphthalazin-1-yl)piperidin-4-yl]nicotinamide] the IC50 was 0.463 nM.
Work on `Nc1nc(N2CCC(NC(=O)c3ccc(-c4cccc(F)c4)nc3)CC2)c2nc[nH]c2n1` [Example 132, N-[1-(2-Amino-9H-purin-6-yl)piperidin-4-yl]-6-(3-fluorophenyl)nicotinamide] yielded an IC50 of 0.365 nM.
In the case of `Cc1nc(N)cc(N2CCC(NC(=O)c3ccc(-c4cccc(F)c4)nc3)CC2)n1` [Example 133, N-[1-(6-Amino-2-methylpyrimidin-4-yl)piperidin-4-yl]-6-(3-fluorophenyl)nicotinamide], the IC50 is reported as 0.395 nM.
Compound `Cc1cnc(C)c(N2CCC(NC(=O)c3ccc(-c4cccc(F)c4)nc3)CC2)n1` [Example 134, N-[1-(3,6-Dimethylpyrazin-2-yl)piperidin-4-yl]-6-(3-fluorophenyl)nicotinamide] has an IC50 of 1.81 nM.
`O=C(NC1CCN(c2ncccc2C(F)(F)F)CC1)c1ccc(-c2cccc(F)c2)nc1` [Example 135, 6-(3-Fluorophenyl)-N-{1-[3-(trifluoromethyl)pyridin-2-yl]piperidin-4-yl}nicotinamide] gave an IC50 of 1.47 nM.
Compound `O=C(NC1CCN(c2nccc(C(F)(F)F)n2)CC1)c1ccc(-c2cccc(F)c2)nc1` [Example 136, 6-(3-Fluorophenyl)-N-{1-[4-(trifluoromethyl)pyrimidin-2-yl]piperidin-4-yl}nicotinamide] has an IC50 of 5.12 nM.
`O=C(NC1CCN(c2ccc(Cl)cn2)CC1)c1ccc(-c2cccc(F)c2)nc1` [Example 137, N-[1-(5-Chloropyridin-2-yl)piperidin-4-yl]-6-(3-fluorophenyl)nicotinamide] gave an IC50 of 1.41 nM.
With `O=C(NC1CCN(c2cnc3ccccc3n2)CC1)c1ccc(-c2cccc(F)c2)nc1` [Example 138, 6-(3-Fluorophenyl)-N-(1-quinoxalin-2-ylpiperidin-4-yl)nicotinamide] the IC50 was 1.23 nM.
Work on `O=C(NC1CCN(c2ncccn2)CC1)c1ccc(-c2cccc(F)c2)nc1` [Example 139, 6-(3-Fluorophenyl)-N-(1-pyrimidin-2-ylpiperidin-4-yl)nicotinamide] yielded an IC50 of 0.222 nM.
`N#Cc1cccnc1N1CCC(NC(=O)c2ccc(-c3cccc(F)c3)nc2)CC1` [Example 140, N-[1-(3-Cyanopyridin-2-yl)piperidin-4-yl]-6-(3-fluorophenyl)nicotinamide] was tested, and the IC50 was 0.628 nM.
In the case of `Cc1noc(NC(=O)c2cccnc2N2CCC(NC(=O)c3ccc(-c4cccc(F)c4)nc3)CC2)c1C#N` [Example 141, N-(4-Cyano-3-methylisoxazol-5-yl)-2-[4-({[6-(3-fluorophenyl)pyridin-3-yl]carbonyl}amino)piperidin-1-yl]nicotinamide], the IC50 is reported as 0.721 nM.
Compound `N#Cc1nccnc1N1CCC(NC(=O)c2ccc(-c3cccc(F)c3)nc2)CC1` [Example 142, N-[1-(3-Cyanopyrazin-2-yl)piperidin-4-yl]-6-(3-fluorophenyl)nicotinamide] has an IC50 of 0.33 nM.
`Cc1cc(N(C)C)nc(N2CCC(NC(=O)c3ccc(-c4cccc(F)c4)nc3)CC2)n1` [Example 143, N-{1-[4-(Dimethylamino)-6-methylpyrimidin-2-yl]piperidin-4-yl}-6-(3-fluorophenyl)nicotinamide] showed an IC50 of 0.688 nM.
`COCc1cc(N2CCC(NC(=O)c3ccc(-c4cccc(F)c4)nc3)CC2)nc(-c2ccccc2)n1` [Example 144, 6-(3-Fluorophenyl)-N-{1-[6-(methoxymethyl)-2-phenylpyrimidin-4-yl]piperidin-4-yl}nicotinamide] showed an IC50 of 9.56 nM.
`CCOC(=O)c1cnc(C(F)(F)F)nc1N1CCC(NC(=O)c2ccc(-c3cccc(F)c3)nc2)CC1` [Example 145, Ethyl 4-[4-({[6-(3-fluorophenyl)pyridin-3-yl]carbonyl}amino)piperidin-1-yl]-2-(trifluoromethyl)pyrimidine-5-carboxylate] showed an IC50 of 5.94 nM.
`O=C(NC1CCN(c2ncccc2C(=O)N2CCOCC2)CC1)c1ccc(-c2cccc(F)c2)nc1` [Example 146, 6-(3-Fluorophenyl)-N-{1-[3-(morpholin-4-ylcarbonyl)pyridin-2-yl]piperidin-4-yl}nicotinamide] gave an IC50 of 1.55 nM.
With `O=C(NC1CCN(c2ncnc3c2ncn3C2CCCCO2)CC1)c1ccc(-c2cccc(F)c2)nc1` (stereo not drawn) [Example 147, 6-(3-Fluorophenyl)-N-{1-[9-(tetrahydro-2H-pyran-2-yl)-9H-purin-6-yl]piperidin-4-yl}nicotinamide] the IC50 was 0.737 nM.
For `NC(=O)c1ccc(C(F)(F)F)nc1N1CCC(NC(=O)c2ccc(-c3cccc(F)c3)nc2)CC1` [Example 148, 2-[4-({[6-(3-Fluorophenyl)pyridin-3-yl]carbonyl}amino)piperidin-1-yl]-6-(trifluoromethyl)nicotinamide], the IC50 was 1.75 nM.
